# Test results published in paper PMC8410836, “Rational design of hyperstable antibacterial peptides for food preservation” (NPJ Science of Food, 2021).
# Like-named read-outs stand apart in the source and are kept apart here. Where a SMILES comes first, the peptide text is derived from it. Bridges are numbered along the chain shown (N, C = ends).
# Assays:
# [1] = target: T1, bovine trypsin (Bos taurus, UniProt P00760); assay: biochemical; conditions: SEM
# Protocol: (§3) The amidase activity of trypsin and its inhibition was assayed using the chromogenic substrate BAPNA at pH 8.2 in 0.05 M Tris-HCl containing 0.02 M CaCl2 at 37 °C. The assay reaction contained 50 µL of trypsin solution (40–50 μg of trypsin in 1 mM HCl), 50 µL of water, and 125 µL of the substrate. The reaction was carried out at 37 °C for 10 min and stopped by addition of 0.25 mL of 30% acetic acid. […] The trypsin solution was incubated with an aliquot of inhibitor for 10 min at 37 °C and reaction started by the addition of 125 µL substrate and incubated at 37 °C for 10 min. […] The effect of varying substrate concentration (BAPNA) on bovine trypsin in the presence of fixed concentrations of peptides was studied. The inhibition constants (Ki) were evaluated using the double reciprocal and Dixon plot of the data[65],[66]. Data presented are averages and standard error calculated from two biological replicate experiments.
# [2] = test system: Micrococcus luteus ATCC4698
# Protocol: (§1) Four Gram-positive bacteria: Listeria monocytogenes ATCC13932, Bacillus cereus ATCC11778, Staphylococcus aureus ATCC12900, and Micrococcus luteus ATCC4698 and three Gram-negative bacteria: Escherichia coli ATCC11775, Pectobacterium carotovorum MCC2112, and Salmonella typhimurium ATCC9844 were used in this study. These strains were stored at −80 °C in 25% (v/v) glycerol.
# (§2) Antimicrobial assays against various bacterial cultures were done using the microdilution broth assay according to the Clinical and Laboratory Standards Institute (CLSI)[64] with some modifications. Mueller-Hinton broth was used to dilute the peptide stock and the bacterial inoculum. Inoculum was prepared from the mid-logarithmic phase culture. Each well of the microtiter plates received aliquots of 100 µL of the media containing different concentrations of peptide ranging from 0.3 to 300 µg/mL. The final concentration of bacteria in the wells was 5 × 10^5 Colony Forming Units (CFU) per mL. Ampicillin was used as positive control. For negative control, ultrapure water was used instead of peptides. Microtiter plates were incubated at 37 °C for 5–6 h with continuous shaking at 130 rpm (M. luteus cells were incubated for 7–8 h). The incubation time used for these assays was initially optimized using a 20-h incubation period. […] MIC assays were performed as three independent experiments in triplicates.
# [3] = target: T1, bovine trypsin; conditions: BAPNA substrate, pH 8.2, 0.05 M Tris-HCl, 0.02 M CaCl2, 37 °C; double reciprocal and Dixon plot; mean and standard error of two biological replicates
# Protocol: as §3
# [4] = test system: Staphylococcus aureus ATCC12900
# Protocol: as §1, §2
# [5] = test system: Salmonella typhimurium ATCC9844
# Protocol: as §1, §2
# [6] = test system: Bacillus cereus ATCC11778
# Protocol: as §1, §2
# [7] = test system: Listeria monocytogenes ATCC13932
# Protocol: as §1, §2
# [8] = test system: Pectobacterium carotovorum MCC2112
# Protocol: as §1, §2
# [9] = test system: Escherichia coli ATCC11775
# Protocol: as §1, §2
# [10] = microdilution broth (CLSI, modified), Mueller-Hinton broth, 5 × 10^5 CFU/mL, 37 °C, 7–8 h, resazurin colour change, three independent experiments in triplicates
# [11] = microdilution broth, MH broth, 5 × 10^5 CFU/mL, 37 °C, 5–6 h, resazurin
# T1 sequence (P00760 24-246): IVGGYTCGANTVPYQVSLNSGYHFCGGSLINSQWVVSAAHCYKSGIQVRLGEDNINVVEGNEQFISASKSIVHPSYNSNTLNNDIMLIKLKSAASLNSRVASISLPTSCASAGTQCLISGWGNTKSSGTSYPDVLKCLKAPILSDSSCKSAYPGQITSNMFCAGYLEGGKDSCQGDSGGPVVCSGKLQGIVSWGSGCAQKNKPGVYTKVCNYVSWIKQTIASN
SMILES,Ki [1] [nM],"MIC (µg/mL) M. luteus [2, 10]",MIC (µg/mL) M. luteus ([2]; ATCC4698) [µg/mL],"MIC Staphylococcus aureus [4, 11] [µg/mL]","MIC Salmonella typhimurium [5, 11] [µg/mL]","MIC Bacillus cereus [6, 11] [µg/mL]","MIC Listeria monocytogenes [7, 11] [µg/mL]","MIC Pectobacterium carotovorum [8, 11] [µg/mL]","MIC Escherichia coli [9, 11] [µg/mL]",further results
CC[C@H](C)[C@H](NC(=O)[C@@H](NC(=O)[C@@H](N)CO)C(C)C)C(=O)NCC(=O)N[C@H]1CSSC[C@@H](C(=O)N[C@@H](Cc2ccccc2)C(=O)N[C@H](C(=O)N[C@@H](CCCCN)C(=O)O)C(C)C)NC(=O)[C@H]([C@@H](C)CC)NC(=O)[C@@H]2CCCN2C(=O)[C@@H]2CCCN2C(=O)[C@H]([C@@H](C)CC)NC(=O)[C@H](CO)NC(=O)[C@H](CCCCN)NC(=O)[C@H]([C@@H](C)O)NC1=O [HSEP1] (H-SVIGCTKSIPPICFVK-OH; disulfide 5-13),230,75 µg/mL,,,,,,,,
CC[C@H](C)[C@H](NC(=O)[C@@H](NC(=O)[C@@H](N)CO)C(C)C)C(=O)N[C@@H](Cc1ccccc1)C(=O)NCC(=O)N[C@H]1CSSC[C@@H](C(=O)N[C@@H](Cc2ccccc2)C(=O)N[C@H](C(=O)NCC(=O)N[C@@H](Cc2ccccc2)C(=O)N[C@@H](CCCCN)C(=O)O)C(C)C)NC(=O)[C@H]([C@@H](C)CC)NC(=O)[C@@H]2CCCN2C(=O)[C@@H]2CCCN2C(=O)[C@H]([C@@H](C)CC)NC(=O)[C@H](CO)NC(=O)CNC(=O)[C@H]([C@@H](C)O)NC1=O [HSEP2-K8G] (H-SVIFGCTGSIPPICFVGFK-OH; disulfide 6-14),,,37.5,,,,,,,Ki (M) against bovine trypsin [3]: failed to show any trypsin inhibition
CC[C@H](C)[C@@H]1NC(=O)[C@@H]2CCCN2C(=O)[C@@H]2CCCN2C(=O)[C@H]([C@@H](C)CC)NC(=O)[C@H](CO)NC(=O)[C@H]([C@@H](C)O)NC(=O)[C@@H](NC(=O)[C@H](C)N)CSSC[C@@H](C(=O)NCC(=O)N[C@@H](CCCCN)C(=O)O)NC1=O [HSEP2-ΔHR-ΔK8] (H-ACTSIPPICGK-OH; disulfide 2-9),,>150 µg/mL,,,,,,,,
CC[C@H](C)[C@H](NC(=O)[C@@H](NC(=O)[C@@H](N)CO)C(C)C)C(=O)N[C@@H](Cc1ccccc1)C(=O)NCC(=O)N[C@H]1CSSC[C@@H](C(=O)N[C@@H](Cc2ccccc2)C(=O)N[C@H](C(=O)NCC(=O)N[C@@H](Cc2ccccc2)C(=O)O)C(C)C)NC(=O)[C@H]([C@@H](C)CC)NC(=O)[C@@H]2CCCN2C(=O)[C@@H]2CCCN2C(=O)[C@H]([C@@H](C)CC)NC(=O)[C@H](CO)NC(=O)[C@H](CCCCN)NC(=O)[C@H]([C@@H](C)O)NC1=O [HSEP2-∆K19] (H-SVIFGCTKSIPPICFVGF-OH; disulfide 6-14),440,25 µg/mL,,>150,>150,>150,>150,>150,>150,
CC[C@H](C)[C@H](NC(=O)[C@H](Cc1ccccc1)NC(=O)[C@H](CO)NC(=O)[C@@H](N)CCCNC(=N)N)C(=O)N[C@@H](Cc1ccccc1)C(=O)NCC(=O)N[C@H]1CSSC[C@@H](C(=O)N[C@@H](Cc2ccccc2)C(=O)N[C@H](C(=O)NCC(=O)N[C@@H](Cc2ccccc2)C(=O)N[C@@H](CCCCN)C(=O)O)C(C)C)NC(=O)[C@H]([C@@H](C)CC)NC(=O)[C@@H]2CCCN2C(=O)[C@@H]2CCCN2C(=O)[C@H]([C@@H](C)CC)NC(=O)[C@H](CO)NC(=O)[C@H](CCCCN)NC(=O)[C@H]([C@@H](C)O)NC1=O [HSEP3a] (H-RSFIFGCTKSIPPICFVGFK-OH; disulfide 7-15),55,12.5 µg/mL,,>150,>150,>150,>150,>150,>150,
CC[C@H](C)[C@H](NC(=O)[C@@H](NC(=O)[C@H](CO)NC(=O)[C@@H](N)CCCNC(=N)N)C(C)C)C(=O)N[C@@H](Cc1ccccc1)C(=O)NCC(=O)N[C@H]1CSSC[C@@H](C(=O)N[C@@H](Cc2ccccc2)C(=O)N[C@H](C(=O)NCC(=O)N[C@H](C(=O)N[C@@H](CCCNC(=N)N)C(=O)O)[C@@H](C)O)C(C)C)NC(=O)[C@H]([C@@H](C)CC)NC(=O)[C@@H]2CCCN2C(=O)[C@@H]2CCCN2C(=O)[C@H]([C@@H](C)CC)NC(=O)[C@H](CO)NC(=O)[C@H](CCCCN)NC(=O)[C@H]([C@@H](C)O)NC1=O [HSEP3b] (H-RSVIFGCTKSIPPICFVGTR-OH; disulfide 7-15),500,6.25 µg/mL,,>150,>150,50,100,50,>150,
CC[C@H](C)[C@H](NC(=O)[C@@H](NC(=O)[C@H](CO)NC(=O)[C@@H](N)CCCNC(=N)N)C(C)C)C(=O)N[C@@H](Cc1ccccc1)C(=O)NCC(=O)N[C@H]1CSSC[C@@H](C(=O)N[C@@H](Cc2ccccc2)C(=O)N[C@H](C(=O)NCC(=O)N[C@@H](Cc2ccccc2)C(=O)N[C@@H](CCCCN)C(=O)O)C(C)C)NC(=O)[C@H]([C@@H](C)CC)NC(=O)[C@@H]2CCCN2C(=O)[C@@H]2CCCN2C(=O)[C@H]([C@@H](C)CC)NC(=O)[C@H](CCCCN)NC(=O)[C@H](CO)NC(=O)[C@H](CCCCN)NC(=O)[C@H]([C@@H](C)O)NC1=O [HSEP3c] (H-RSVIFGCTKSKIPPICFVGFK-OH; disulfide 7-16; N-terminus and C-terminus assumed),1400,,3.125,,,,,,,MIC Staphylococcus aureus ([4]; ATCC12900): 150 µg/mL; MIC Salmonella typhimurium ([5]; ATCC9844): >150 µg/mL; MIC Bacillus cereus ([6]; ATCC11778): 100 µg/mL; MIC Listeria monocytogenes ([7]; ATCC13932): 50 µg/mL; MIC Pectobacterium carotovorum [8]: 50 µg/mL; MIC Escherichia coli ([9]; ATCC11775): 100 µg/mL
CC[C@H](C)[C@H](NC(=O)[C@H](Cc1c[nH]c2ccccc12)NC(=O)[C@H](CO)NC(=O)[C@@H](N)CCCNC(=N)N)C(=O)N[C@@H](Cc1ccccc1)C(=O)N[C@H]1CSSC[C@@H](C(=O)N[C@@H](Cc2ccccc2)C(=O)N[C@H](C(=O)NCC(=O)N[C@@H](Cc2c[nH]c3ccccc23)C(=O)N[C@@H](CCCNC(=N)N)C(=O)O)C(C)C)NC(=O)[C@H]([C@@H](C)CC)NC(=O)[C@@H]2CCCN2C(=O)[C@@H]2CCCN2C(=O)[C@H]([C@@H](C)CC)NC(=O)[C@H](Cc2ccc(O)cc2)NC(=O)[C@H](CCCNC(=N)N)NC(=O)[C@H]([C@@H](C)O)NC1=O [HSEP3d] (H-RSWIFCTRYIPPICFVGWR-OH; disulfide 6-14; N-terminus and C-terminus assumed),370,,3.125,,,,,,,MIC Staphylococcus aureus ([4]; ATCC12900): >150 µg/mL; MIC Salmonella typhimurium ([5]; ATCC9844): >150 µg/mL; MIC Bacillus cereus ([6]; ATCC11778): 100 µg/mL; MIC Listeria monocytogenes ([7]; ATCC13932): >150 µg/mL; MIC Pectobacterium carotovorum [8]: >150 µg/mL; MIC Escherichia coli ([9]; ATCC11775): >150 µg/mL
"CC[C@H](C)[C@H](NC(=O)[C@@H](NC(=O)[C@@H](N)CO)C(C)C)C(=O)NCC(=O)N[C@H]1CSSC[C@@H](C(=O)N[C@@H](Cc2ccccc2)C(=O)N[C@H](C(=O)N[C@@H](CCCCN)C(=O)O)C(C)C)NC(=O)[C@@H]2CCCN2C(=O)[C@H](CCCNC(=N)N)NC(=O)[C@@H]2CCCN2C(=O)[C@@H]2CCCN2C(=O)[C@H]([C@@H](C)CC)NC(=O)[C@H](CO)NC(=O)[C@H](CCCCN)NC(=O)[C@H]([C@@H](C)O)NC(=O)[C@H](Cc2c[nH]c3ccccc23)NC1=O [HVBBI, reference compound] (H-SVIGCWTKSIPPRPCFVK-OH; disulfide 5-15)",370,150 µg/mL,,,,,,,,
"CC[C@H](C)[C@@H]1NC(=O)[C@@H]2CCCN2C(=O)[C@@H]2CCCN2C(=O)[C@H]([C@@H](C)CC)NC(=O)[C@H](CO)NC(=O)[C@H](CCCCN)NC(=O)[C@H]([C@@H](C)O)NC(=O)[C@@H]2CSSC[C@H](NC1=O)C(=O)N[C@@H](Cc1ccccc1)C(=O)N1CCC[C@H]1C(=O)N[C@@H](CC(=O)O)C(=O)NCC(=O)N[C@@H](CCCNC(=N)N)C(=O)N2 [SFTI-cyclic, reference compound]",,no detectable inhibitory activity,,,,,,,,
